Assay results taken from EP1363949B1, “FUNCTIONAL FRAGMENT OF THE LEPTINE RECEPTOR” (Vlaams Interuniversitair Instituut voor Biotechnologie vzw., priority 2000, dated 2007).

Test system: FLAG-tagged SOCS3
Assay: phosphopeptide affinity chromatography with anti-FLAG Western blot
Assay type: binding, rat
Conditions: lysates of HEK293T cells transfected with pMET7-fSOCS3, biotinylated peptides on streptavidin-agarose
Description: Monoclonal anti-FLAG antibody M2 was obtained from Sigma. Mouse recombinant leptin was purchased from R&D Systems. Peptides were synthesized using standard Fmoc-amino-acid solid phase chemistry on an Applied Biosystems Model 431A peptide synthesizer. Biotin was esterified manually following similar procedures as on the synthesizer, and added to the reaction mixture. Incorporation of phosphotyrosine was realized by using a protected Fmoc-tyrosine-phosphobenzylester (Novabiochem). After purification, mass of the peptides was confirmed by mass spectrometry. Sequences of the peptides used were biotin-QRQPSVK(p)Y985ATLVSNDK and biotin-NHREKSVC(p)Y1077LGVTSVNR.
Approximately 10^6 HEK293T cells were lysed in 150 µl 2x loading buffer. After sonication, 30 µl was loaded on a 10% polyacrylamide gel. […] Blotting efficiency was checked using PonceauS staining (Sigma). […] Peptide concentrations were determined by a colorimetric assay using alkaline hydrolysis and a ninhydrine reagent. […]
The interaction sites of SOCS3 with the leptin receptor were confirmed using a biochemical approach. FLAG-tagged SOCS3 was expressed upon transient transfection of pMET7-fSOCS3 in HEK293T cells, and was analyzed for binding to (phospho)-tyrosine containing peptides matching the two motifs within the leptin receptor. […]

In the case of “biotin-QRQPSVK(p)Y985ATLVSNDK [non-phosphorylated peptide]”, the “binding of SOCS3” value is reported as “did not bind any SOCS3 protein”.
